Data set [1] has as its system leukemia cells of patients having promyelocytic leukemia. The data set can be described thus: Induction of cell differentiation in promyelocytic leukemia cells. It is filed as cell-based, human (patients).
Another data set deals with tracheal epithelium. The data set can be described thus: Elimination of keratinization in tracheal cultures (antitumor action). It is filed as cell-based, hamster. To be noted: Mesocricetus auratus, 240 h; hamster tracheal culture, 10 days, serum-free; extrapolated from dose-effect curves; read-out: ED50 (molar dose which suppresses keratinization in half the cultures) (converted). From the text: The test model is used to determine the intrinsic property of the novel compounds of increasing the differentiation of epithelial cells. The great significance of this screening method in predicting the potential use of a new retinoid for the prevention of tumors in epithelial tissue is generally recognized. Moreover, it is known that every in vitro test system has disadvantages in respect of the prediction of in vivo activity. Apart from these basic restrictions, tracheal cell cultures are one of the most useful methods of determining the biological activity of novel retinoids.
The ability of the test substances to eliminate keratinization in a defined in vitro system was determined. Tracheae of hamsters at a very early stage of vitamin A deficiency were used for culture. […] Their average weight was from 47 to 52 g. The tracheal epithelium was in general slightly columnar or pavement-like and had only isolated areas of squamous metaplasia. Each trachea was opened along the membrane-like dorsal wall, from the larynx to the carina, and cultured in a serum-free medium (CMRL-1066 supplemented by 1.0 μg/ml of crystalline bovine insulin, 0.1 μg/ml of hydrocortisone hemisuccinate, 2mM of glutamine, 100 units/ml of penicillin and 100 μg/ml of streptomycin). The cultures were aerated with a mixture of 50% of oxygen, 45% of nitrogen and 5% of carbon dioxide, and the culture dishes were shaken gently to bring the tracheae into contact with the gas and the culture medium. All tracheae were initially kept for 3 days in the culture medium without the addition of retinoid. After this period, some tracheae were removed. […] The remaining tracheae were divided into groups, which were then treated with the following additives:
(a) The test substance dissolved in spectroscopically pure dimethylsulfoxide (the final concentration of dimethylsulfoxide in the culture medium was never greater than 0.1%).
(b) An equivalent amount of dimethylsulfoxide without a further additive.
The nutrient medium was changed three times per week. After culture for 10 days, the remaining tracheae were worked up by being fixed in 10% strength buffered formaldehyde solution and embedded in paraffin. […] Dose-effect curves of the novel compounds were recorded. Table 1 below gives the extrapolated molar doses which suppress keratinization in half the cultures (ED 50%).

For data set [2], the system named is white male New Zealand rabbits. To be noted: rabbit, in vivo. The procedure:
5. The toleration of the test substances after topical administration was determined in experiments with 6 white male New Zealand rabbits in each case. In the case of each test animal, an area of about 6 cm^2 on the back was shaved. The test substances were dissolved in ethanol/propylene glycol (70:30, v/v), and 0.2 ml of this solution was applied with an automatic micropipette on 9 successive days by carefully rubbing the solution into a particular point twice daily at 6-hour intervals.
Before each application in the morning, all test areas were assessed subjectively in respect of erythemas and scaling, a numerical scale from 0 to 3 being employed (0=no reaction, 1=mild, 2=moderate and 3=severe). The average erythema formation and scaling gives the relative irritant level of the test substances in comparison with vitamin A acid.

A further data set has as its system comedos. The experiment in a line: Comedolytic activity on tar-induced comedos of rabbit ears. Format: in vivo, albino rabbits. As to conditions: Oryctolagus cuniculus, 336 h; concentration 0.1%, topical, rabbit ear, two weeks; read-out: Comedolytic activity in % (decrease in number of comedos vs control ear). The procedure: The development of comedos was induced by one topical application of 0.5 ml per day, onto both ears of albino rabbits, of 5% of tar in Polyan® (ester of lanolin alcohol and linolenic acid, produced by Amerchol Corp., U.S.A.), the application being carried out on 5 successive days per week over a period of two weeks. Thereafter, the test substances in ethanol/propylene glycol (70:30, v/v, 0.5 ml) were applied topically onto the inner skin area of one ear of each rabbit once per day on 5 successive days per week over a period of two weeks. The second ear of each animal served as an untreated control.
After further treatment for 72 hours with the test substance, the rabbits were sacrificed. A skin sample of about 6 cm^2 was taken from each auricle just outside the oratory passage, and this sample was divided into sections of about 1 cm^2. These pieces of skin were immersed for 2 minutes in warm water at 60° C. The epidermis was carefully peeled off using the flat end of a spatula and a small forceps, and was placed, dermal side up, on the slide. After drying in air overnight, the test strips were assessed under a stereomicroscope. […] The comedos were recognizable as discrete, cylindrical to round keratose particles which were of similar appearance and whose size and number were proportional to the activity of the test substance. The comedolytic effect was determined as the decrease in the number of comedos, in %, compared with the control ear (cf. Table 2).

The test system of data set [3] is utriculi in the Rhino mouse. The data set can be described thus: Reduction of the number of utriculi in the Rhino mouse model. It is filed as in vivo, Rhino mice. To be noted: concentration 0.1%, Rhino mouse; read-out: Decrease in % (number of utriculi / cysts).

This is an account of results in patent US4578498A, “Phenylethylene derivatives and their use as drugs” (BASF Aktiengesellschaft, priority 1982, dated 1986).

For the compound `C/C(=C\c1ccc(C(=O)O)cc1)c1cc2c(cc1C)C(C)(C)CCC2(C)C` [Example 2, E-4-[2-methyl-2-(1,1,4,4,6-pentamethyl-1,2,3,4-tetrahydronaphth-7-yl)-vinyl]-benzoic acid], in data set [1], the “induction of cell differentiation to give mature granulocytes” value was “induce cell differentiation to give mature granulocytes”. For the same compound, the IC50 in the data set on tracheal epithelium is 10 pM. In data set [2], this compound registered an Erythema of 2.8 and a Scaling of 2.7. Moreover, in the data set with comedos, the inhibition in vivo at 0.1 % amounted to 73%. Also, in data set [3], the inhibition in vivo at 0.1 % worked out at 68%.
